Data taken from US20130225830A1, “POLYMORPHS OF FEBUXOSTAT” (MAPI PHARMA LIMITED, priority 2010, published 2013).
Where “and” joins values, the source holds several entries; their conditions need not be identical. Identical values can stand only once.

Experiments:
Type in all cases: physicochemical
[1] = Physical stability measurements (XRPD, DSC, TGA)
Procedure: Testing conditions: 40° C., 60° C., 40° C./RH 75%, 60° C./RH 75%, light
Testing procedure: About 50 mg of a febuxostat form were weighed in glass vial for testing the physical stability and were stored under different conditions for 1 week and 2 weeks, separately. The same febuxostat form was stored at −20° C. as control. XRPD, DSC and TGA of each of the febuxostat forms were measured at the end of the first and second weeks.

[2] = Solid stability measurements (appearance, assay and total related substances by HPLC); conditions: for Remaining (%): one value for both samples, vs −20° C. control; for Appearance / TRS (%): samples 1 and 2
Procedure: The detailed chromatographic conditions are listed hereinbelow. The typical retention time of febuxostat main peak is 8.2 min. [table] Testing conditions: 40° C., 60° C., 40° C./RH 75%, 60° C./RH 75%, light Testing procedure: About 3 mg of a febuxostat form were weighed in a glass vial and stored under the different conditions for 1 week and 2 weeks, separately. The same febuxostat form was stored at −20° C. as control. The test was conducted in duplication. The physical appearance, assay and total related substances of each of the febuxostat forms were measured by HPLC at the end of the first and second weeks.

[3] = Hygroscopicity measurements (DVS sorption/desorption profiles); conditions: 25° C.
Procedure: The sorption/desorption profiles of the forms of the present invention were tested at 25° C. under 0-90% relative humidity. The forms of the present invention were classified according to the following criteria: Deliquescent: Sufficient water is absorbed to form a liquid. […] Hygroscopic: Increase in mass is less than 15% and equal to or greater than 2%. Slightly hygroscopic: Increase in mass is less than 2% and equal to or greater than 0.2%. Non-hygroscopic: Increase in mass is less than 0.2%.

[4] = Bulk and tapped density measurements
Procedure: Bulk density testing: A febuxostat form in an amount which is sufficient to complete the test was passed through a 1.0 mm (No. 18) screen to break up agglomerates that may have formed during storage. The febuxostat form was then weighed (M) and the powder was added into a 10 mL graduated cylinder. The powder was carefully leveled without compacting, and the unsettled apparent volume, Vo, was read. The bulk density, in g per mL, was calculated by the formula: Bulk Density=M/Vo Tapped density testing: A febuxostat form in an amount which is sufficient to complete the test was passed through a 1.0 mm (No. 18) screen to break up agglomerates that may have formed during storage. The febuxostat form was then weighed and the powder was added into a 10 mL graduated cylinder. The powder was carefully leveled without compacting. The cylinder was tapped 500 times initially and the tapped volume, Va, was measured to the nearest graduated unit. The tapping was then repeated for additional 750 times and the tapped volume, Vb, was measured to the nearest graduated unit. If the difference between the two volumes was less than 2%, Vb was taken as the final tapped volume, Vf. The tapped density, in g per mL, was calculated by the formula: Tapped Density=M/Vf

## Cc1nc(-c2ccc(OCC(C)C)c(C#N)c2)sc1C(=O)O [Form XI, 2-(3-cyano-4-isobutoxyphenyl)-4-methyl-5-thiazolecarboxylic acid]
[1]; 40° C., 60° C. and light at the end of the first and second week
  physical stability (XRPD, DSC, TGA): stable
[1]; 40° C./75% RH at the end of the first week
  physical stability (XRPD, DSC, TGA), form conversion: completely converted to form G
[1]; 40° C./75% RH at the end of the second week
  physical stability (XRPD, DSC, TGA), form conversion: completely converted to form G
[1]; 60° C./75% RH at the end of the first and second weeks
  physical stability (XRPD, DSC, TGA), form conversion: completely converted to form G
[2]; 40° C., 60° C., 40° C./75% RH, 60° C./75% RH at end of the first and second weeks
  change of assay and TRS (in words): no significant change
[2]; 40° C., 7 d
  Remaining (%): 99.02%
  Appearance: No change
  TRS (%): 1.25% and 1.24%
[2]; 40° C., 14 d
  Remaining (%): 100.12%
  Appearance: No change
  TRS (%): 1.26% and 1.27%
[2]; 40° C./75% RH, 7 d
  Remaining (%): 99.02%
  Appearance: No change
  TRS (%): 1.28%
[2]; 40° C./75% RH, 14 d
  Remaining (%): 100.75%
  Appearance: No change
  TRS (%): 1.30% and 1.29%
[2]; 60° C., 7 d
  Remaining (%): 98.56%
  Appearance: No change
  TRS (%): 1.31% and 1.30%
[2]; 60° C., 14 d
  Remaining (%): 99.72%
  Appearance: No change
  TRS (%): 1.33%
[2]; 60° C./75% RH, 7 d
  Remaining (%): 98.44%
  Appearance: No change
  TRS (%): 1.33% and 1.31%
[2]; 60° C./75% RH, 14 d
  Remaining (%): 99.82%
  Appearance: No change
  TRS (%): 1.35% and 1.36%
[2]; Light, 7 d
  Remaining (%): 96.26%
  Appearance: Light yellow
  TRS (%): 1.86% and 2.09%
[2]; Light, 14 d
  Remaining (%): 95.06%
  Appearance: Light yellow
  TRS (%): 4.88% and 4.32%
[2]; −20° C. (control), 7 d
  Appearance: No change
  TRS (%): 1.22%
[2]; −20° C. (control), 14 d
  Appearance: No change
  TRS (%): 1.23%
[3]; 0-90% relative humidity
  Hygroscopicity classification: hygroscopic
[3]; Target % P/P0 0.0
  Change in Mass (%) - ref, Desorption: −0.052%
  Change in Mass (%) - ref, Sorption: 0.001%
[3]; Target % P/P0 10.0
  Change in Mass (%) - ref, Desorption: 0.973%
  Change in Mass (%) - ref, Hysteresis: 0.164%
  Change in Mass (%) - ref, Sorption: 0.810%
[3]; Target % P/P0 20.0
  Change in Mass (%) - ref, Desorption: 1.210%
  Change in Mass (%) - ref, Hysteresis: 0.146%
  Change in Mass (%) - ref, Sorption: 1.064%
[3]; Target % P/P0 30.0
  Change in Mass (%) - ref, Desorption: 1.425%
  Change in Mass (%) - ref, Hysteresis: 0.203%
  Change in Mass (%) - ref, Sorption: 1.222%
[3]; Target % P/P0 40.0
  Change in Mass (%) - ref, Desorption: 1.560%
  Change in Mass (%) - ref, Hysteresis: 0.150%
  Change in Mass (%) - ref, Sorption: 1.410%
[3]; Target % P/P0 50.0
  Change in Mass (%) - ref, Desorption: 1.728%
  Change in Mass (%) - ref, Hysteresis: 0.169%
  Change in Mass (%) - ref, Sorption: 1.559%
[3]; Target % P/P0 60.0
  Change in Mass (%) - ref, Desorption: 1.948%
  Change in Mass (%) - ref, Hysteresis: 0.166%
  Change in Mass (%) - ref, Sorption: 1.782%
[3]; Target % P/P0 70.0
  Change in Mass (%) - ref, Desorption: 2.187%
  Change in Mass (%) - ref, Hysteresis: 0.130%
  Change in Mass (%) - ref, Sorption: 2.057%
[3]; Target % P/P0 80.0
  Change in Mass (%) - ref, Desorption: 2.503%
  Change in Mass (%) - ref, Hysteresis: 0.089%
  Change in Mass (%) - ref, Sorption: 2.414%
[3]; Target % P/P0 90.0
  Change in Mass (%) - ref, Desorption: 3.111%
  Change in Mass (%) - ref, Sorption: 3.111%
[4]
  Bulk Density: 0.346 g/mL
  Tapped Density: 0.553 g/mL
[4]; compared among forms V, IX, XI and form G
  bulk and tapped densities (in words): adequate bulk and tapped densities
